Test system: endogenous Tau (MAPT) of wild-type C57/BL6 animals
Test: 2D gel electrophoresis of endogenous brain Tau in treated wild-type animals
Format: in vivo, mouse
Conditions: wild-type mice, 1 month; for number of Tau isovariants stained with antibody S199: 5 isovariants in non-treated condition
Text: Wild-type C57BL/6J animals of 3 months were purchased at Charles Rivers Laboratories (France) and were allow to acclimate in the animal facility for at least one week before any treatment. Thy-Tau22 transgenic colonies (C57BL/6J genetic background) were obtained by crossing heterozygous Thy-Tau22 males with C57BL/6 WT females. […] In this model, a progressive development of NFT is observed in the hippocampus and amygdala, which parallels behavioral impairments (Schindowski et al., 2006). Furthermorever, in the hippocampus, hyper- and abnormally phosphorylated Tau species accumulate within the somato-dendritic area (Schindowski et al., 2006).
For animal treatment, animals were randomly distributed and the compound of Formula I was given in the drinking water at final concentration of 0.5 or 1 mg/kg. Drinking bottles were changed once per week, volume consumption was measured along the treatment period. Food consumption and body weight were assessed. In wild-type animals the pilot study of drug treatment was performed for one month to establish the innocuousness of the treatment with the compound of Formula I. This was based on the physiological, social and behavioural assessments. Thy-Tau22 males were treated for 4 months starting at 3 month old. All protocols were approved by the local ethics committee (n^∘342012, CEEA).
After behavioral assessment, blood was collected in 1.5 mL polypropylene tubes (Eppendorf, France), mice were sacrificed by cervical dislocation to avoid any modifications instrumental to anesthesia (Lefreche et al. 2012). Hippocampi and cortices were dissected and snap frozen in 1.5 mL tubes (Eppendorf). Tissue was homogenized in Tris-HCl buffer (10 mM pH 7.4) containing 320 mM sucrose, protease inhibitors (Complete mini EDTA-free, Roche) sonicated and spun at 12,000×g for 10 min at 4° C. The supernatant was recovered, protein concentration was achieved using the BCA Protein quantification assay kit (Pierce) according to the manufacturer instruction. The supernatant was further processed for biochemical analyses or kept at −80° C. For 1D or 2D gels, the same lysis buffer was used. Thus, equal amount protein in Tris buffer were added with a solution containing 7M urea, 2M thiourée with 2% SDS and sonicated at 60 Hz 30 pulses.
Two-dimensional gel electrophoresis was performed according to the recently published procedure (Fernandez-Gomez et al., 2014). Briefly, cells were rinsed once with PBS and lysed in UTS buffer (7M urea, 2M thiourea, 2% SDS) and sonicated at 60 Hz 30 pulses. Lysate was precipitated with methanol/chloroform. 50 μg of proteins were precipitate using the chloroform/methanol procedure and the pellet was dissolved in 2D buffer [urea 7M, thiourea 2M, 4% CHAPS, and 0.6% Pharmalytes 3-10 (G&E Healthcare)]. […] The strips were layered onto a 4-12% Bis-Tris Poly-acrylamide Gel XT™ Precast Criterion (BioRad) and run with a constant tension of 100V as described for 1D SDS-PAGE. The Western blot was performed as above described for 1D SDS-PAGE and Western-blotting.
To further determine the effect of the compound of Formula I on Tau metabolism, wild-type C57/BL6 animals were treated with 0.5 and 1 mg/Kg of the compound of Formula I for 1 month and endogenous MAPT expression was assessed by 2D gel electrophoresis. Tau protein isovariants consist of three series ranging from pI 10 to 6. The major and most basic isovariants correspond to the mouse Tau isoform comprising the sole exon 10 encoding sequence. The two other series of isoforms of molecular weight of 64 and 69 kDa are isovariants of Tau isoforms which, in addition to the exon 10, contain exon 2 or exon 2+3 encoding sequences, respectively.

SMILES: CC(C)CN(CCCN1CCN(CCCNc2c3c(nc4ccccc24)CCCC3)CC1)CC(C)C [compound of Formula I, N-[3-(4-{3-[Bis(2-methylpropyl)amino]propyl}piperazin-1-yl)propyl]-1,2,3,4-tetrahydroacridin-9-amine]
- number of Tau isovariants stained with antibody S199 (0.5 mg/Kg): 3 isovariants
- low molecular weight Tau catabolic products (Tau-Cter antibody) (0.5 mg/Kg, brain 2D gel, FIG. 3): increased in number and intensity
- number of Tau isovariants stained with antibody S199 (1 mg/Kg): 2 isovariants
- distribution of Tau isovariants (Tau-Cter antibody) (0.5 and 1 mg/Kg in drinking water, brain 2D gel, FIG. 3): did not significantly change
- surface of the spots stained with antibody S199 (0.5 and 1 mg/Kg, 2D gel): reduced
- overall 2D profile of the full-length Tau isoforms (after treatment 0.5 and 1 mg/Kg): preserved
